Results on 8 substances are retold here after patent US7465708B2, “Branched cationic copolymers and methods for antimicrobial use” (priority 2002, dated 2008).

Read-outs that look alike come from different tables or passages of the source. Positions of bridges follow the written chain, without caps; N, C: chain ends. Chains are numbered I, II in the order given. No end group written: not given here.

For one data set, the system named is mice. Briefly: Acute in vivo toxicity after IV injection. The note with it: for side effects of surviving mice (scale): one symbol per mouse; for histology of major organs: mice who died from polymers at higher dosages; for in vivo toxicity (in words): administered intravenously. From the text:
One of the major limitations of cationic peptides is their potenitial toxicity when administered systemically. As a result, we tested the acute toxicity of these polymers after injecting them IV. […] Conversely, linear polymers that had minimal to moderate antibacterial properties had the greatest in vivo toxicity. […] Even if one arginine adjacent to the histidine residue replaces the amino terminal lysine in the HK polymer (e.g., HK-R), the polymer was still very toxic when administered intravenously. The in vivo toxicity of linear HK polymers from most to least is as follows: HR>HK-R>>HK. […] There were parallels between in vitro and in vivo toxicity studies (Tables 2 and 3). […] The data is consistent with linear polymers interacting and inhibiting ionic channels of the cardiovascular system (similar to neurotoxins). Intravenous injection of linear polymers with arginine or lysines adjacent (or near) to histidines should be avoided.

Another data set deals with MDA-MB-435 cells. Briefly: In vitro toxicity: reduction in cell number after incubation with polymers. It counts as cell-based. The text has this: In vitro toxicity of these polymers was then examined on a malignant cell line (MDA-MB-435).
In data set [1] the test system is gram negative bacteria E. coli transformed with a kanamycin-resistant plasmid. As to the kind of experiment: In vitro bacteria inhibition (MIC, turbidity O.D. 600 nm in LB broth). It counts as cell-based. The method, then: Bacteria; A gram negative bacteria E. coli transformed with a kanamycin-resistant plasmid was used in these experiments and grown in LB media (Biofluids, Rockville, Md.).
For in vitro studies, several polymers were tested for their ability to inhibit gram negative bacteria. […] The histidine and lysine ratio and their sequence order have an important role in the-polymers' effects. […] Since it is likely that H^3KN4b has the greatest ability to chelate key transitional elements, chelation of key elements in LB media, separate from the polymer's role of binding to the bacteria membrane, is unlikely to have a major role in the inhibition of bacteria. • 3) The sequence order of lysine and histidine in the branched polymer has a major role in the inhibition of bacteria. Altering these sequences affects the antibacterial activity of […]. Sufficient cationic amino acids are critical for binding whereas the exact function of histidine is unclear. Data supports that cationic amino acids need to be evenly distributed in branches, particularly at N-terminal ends. Too many cationic amino acids in the polymer, however, reduce antibacterial activity. • 4) Histidine may have a role in the interruption of iron transport systems and/or it may enhance the hydrophobic interactions of the polymer with the bacteria membrane.

The mark [2] stands for this setting: 50 μg/ml, 6 h incubation in DMEM/10% serum, counted 24 h later vs untreated cells.
[3] abbreviates: 150 μg/ml, 6 h incubation in DMEM/10% serum, counted 24 h later vs untreated cells.
[4] abbreviates: 100 μl/ml, 6 h incubation in DMEM/10% serum, counted 24 h later vs untreated cells.

As to “I: KHHHKHHHKHHHKHHHKKKK / II: KHHHKHHHKHHHKHHHK / III: KHHHKHHHKHHHKHHHK / IV: KHHHKHHHKHHHKHHHK (amide I:18-IV:C, I:19-III:C, I:20-II:C) [H^3K4b, [K-H-H-H-K-H-H-H-K-H-H-H-K-H-H-H-K]4K3]”, the “number of mice who survive treatment / number of mice in treatment group” value in the data set on mice (75 μg IV), in the data set on mice (150 μg IV), in the data set on mice (300 μg IV) and in the data set with mice (600 μg IV) was 2/2 in each case. In the data set on mice (three 600 μg dosages, each separated by 4 h), the “toxicity after repeated dosing (in words)” value is “no evidence of toxicity”. The “Reduction In Cell Number” value in the data set on MDA-MB-435 cells (setting [2]), in the data set on MDA-MB-435 cells (setting [3]) and in the data set on MDA-MB-435 cells (setting [4]) was 0% each time. The “in vitro toxicity (in words, measured by cell number)” value in the data set with MDA-MB-435 cells (MDA-MB-435 cells) is “no observed toxicity”.

As for “I: KHHHNHHHKHHHKHHHKKKK / II: KHHHNHHHKHHHKHHHK / III: KHHHNHHHKHHHKHHHK / IV: KHHHNHHHKHHHKHHHK (amide I:18-IV:C, I:19-III:C, I:20-II:C) [H^3KN4b, [K-H-H-H-N-H-H-H-K-H-H-H-K-H-H-H-K]4K3]”, the “antimicrobial activity (in words)” value in data set [1] was “moderate antimicrobial activity”.

Consider “I: KHKHHKHHKHHKHHKHHKHKK / II: KHKHHKHHKHHKHHKHHKHK (amide I:21-II:C) [H^2K2b, [K-H-H-K-H-H-K-H-H-K-H-H-K-H-H-K-H-K]2K]”, for which, in data set [1], the “antimicrobial activity (in words)” value is given as “only moderate reduction on bacteria growth”.

On to “I: KHKHHKHHKHHKHHKHHKHKKKK / II: KHKHHKHHKHHKHHKHHKHK / III: KHKHHKHHKHHKHHKHHKHK / IV: KHKHHKHHKHHKHHKHHKHK (amide I:21-IV:C, I:22-III:C, I:23-II:C) [H^2K4b, [KHKHHKHHKHHKHHKHHKHK]4K3]”, for which the “number of mice who survive treatment / number of mice in treatment group” value in the data set with mice (75 μg IV), with mice (150 μg IV), in the data set on mice (300 μg IV) and in the data set with mice (600 μg IV) was 2/2 each time. Also, the “Reduction In Cell Number” value in the data set on MDA-MB-435 cells (setting [2]) came out at 5%; in the data set with MDA-MB-435 cells (setting [3]), 22%; with MDA-MB-435 cells (setting [4]), 12%.

On to “I: KHKHKHKHKGKHKHKHKHKKKK / II: KHKHKHKHKGKHKHKHKHK / III: KHKHKHKHKGKHKHKHKHK / IV: KHKHKHKHKGKHKHKHKHK (amide I:20-IV:C, I:21-III:C, I:22-II:C) [HK4b, [K-H-K-H-K-H-K-H-K-G-K-H-K-H-K-H-K-H-K]4K3]”, for which the “number of mice who survive treatment / number of mice in treatment group” value in the data set with mice (75 μg IV), in the data set on mice (150 μg IV), with mice (300 μg IV) and in the data set on mice (600 μg IV) was 2/2 in each case.

With “KHKHKHKHKGKHKHKHKHK [linear HK, [K-H-K-H-K-H-K-H-K-G-K-H-K-H-K-H-K-H-K]]”, the “number of mice who survive treatment / number of mice in treatment group” value in the data set with mice (75 μg IV) is 2/2; with mice (150 μg IV), 2/2; in the data set with mice (300 μg IV) it was 2/2; in the data set on mice (600 μg IV), 0/2. For the same substance, the “side effects of surviving mice (scale)” value in the data set with mice (150 μg IV) is “++, +”; with mice (300 μg IV) it was “+++, +++”. For the same substance, the “histology of major organs” value in the data set with mice is recorded as “no evidence of pathology”. Moreover, in the data set on MDA-MB-435 cells, the “Reduction In Cell Number” value was 68%. In the data set on MDA-MB-435 cells, the “in vitro toxicity (in words, measured by cell number)” value is “significantly more toxic”.

In the case of “RHKHKHKHKGKHKHKHKHK [HK-R, [R-H-K-H-K-H-K-H-K-G-K-H-K-H-K-H-K-H-K]]”, the “number of mice who survive treatment / number of mice in treatment group” value in the data set on mice (75 μg IV) is 2/2; in the data set with mice (150 μg IV) it was 2/2; in the data set with mice (300 μg IV), 0/2; in the data set with mice (600 μg IV), 0/2. Also, the “side effects of surviving mice (scale)” value in the data set on mice (150 μg IV) is “+, +”. Also, the “in vivo toxicity (in words)” value with mice is recorded as “very toxic”. Besides, the “histology of major organs” value in the data set on mice was “no evidence of pathology”.

Consider “RHRHRHRHRGRHRHRHRHR [linear RH, [R-H-R-H-R-H-R-H-R-G-R-H-R-H-R-H-R-H-R]]”, for which the “number of mice who survive treatment / number of mice in treatment group” value is reported as 2/2 in the data set on mice (75 μg IV), 2/2 with mice (150 μg IV), 0/2 with mice (300 μg IV) and 0/2 with mice (600 μg IV). For the same substance, the “side effects of surviving mice (scale)” value was “+ (moderate reduction in activity in for less than 1 min)” in the data set with mice (75 μg IV) and “+++, +” in the data set with mice (150 μg IV). The “in vivo toxicity (in words)” value in the data set on mice is on record as “most toxic of the linear polymers”. Moreover, the “histology of major organs” value in the data set on mice is recorded as “no evidence of pathology”.
